# Values joined by “and” are separate entries in the source; they are usually repeats but may differ in a detail not shown here. Identical values can stand only once. Toxic doses and inconclusive results are not listed.
# Test system: P388 leukemia ip, CD2F1 mice, survival T/C
# Experiment: NCI In Vivo Anticancer Drug Screen. Data for tumor model P388 Leukemia (intraperitoneal) in CD2F1 (CDF1) mice
# Details: endpoint: median survival time, higher = longer survival
# Procedure, shortened: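 Mice carrying the transplanted tumor received test compound or vehicle. Survival was recorded in each group, and the value is the treated-group measurement divided by that of the vehicle-treated control group.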
# [1] = dose: 25.0 mg/kg/injection, schedule: Q01DX009 (ip), vehicle: saline
# [2] = dose: 50.0 mg/kg/injection, schedule: Q01DX009 (ip), vehicle: saline with Tween-80
# [3] = dose: 100.0 mg/kg/injection, schedule: Q01DX009 (ip), vehicle: saline with Tween-80
# [4] = dose: 200.0 mg/kg/injection, schedule: Q01DX009 (ip), vehicle: saline with Tween-80
# [5] = dose: 50.0 mg/kg/injection, schedule: Q01DX009 (ip), vehicle: suspension in saline
# [6] = dose: 100.0 mg/kg/injection, schedule: Q01DX009 (ip), vehicle: suspension in saline
# [7] = dose: 200.0 mg/kg/injection, schedule: Q01DX009 (ip), vehicle: suspension in saline
# [8] = dose: 60.0 mg/kg/injection, schedule: Q01DX005 (ip), vehicle: saline
# [9] = dose: 120.0 mg/kg/injection, schedule: Q01DX005 (ip), vehicle: saline
# [10] = dose: 50.0 mg/kg/injection, schedule: Q01DX005 (ip), vehicle: saline with Tween-80
# [11] = dose: 100.0 mg/kg/injection, schedule: Q01DX005 (ip), vehicle: saline with Tween-80
# [12] = dose: 200.0 mg/kg/injection, schedule: Q01DX005 (ip), vehicle: saline with Tween-80
# [13] = dose: 60.0 mg/kg/injection, schedule: Q01DX005 (ip), vehicle: saline with Tween-80
# [14] = dose: 120.0 mg/kg/injection, schedule: Q01DX005 (ip), vehicle: saline with Tween-80
# [15] = dose: 240.0 mg/kg/injection, schedule: Q01DX005 (ip), vehicle: saline with Tween-80
# [16] = dose: 240.0 mg/kg/injection, schedule: Q01DX005 (ip), vehicle: saline
# [17] = dose: 50.0 mg/kg/injection, schedule: Q01DX005 (ip), vehicle: saline
# [18] = dose: 100.0 mg/kg/injection, schedule: Q01DX005 (ip), vehicle: saline
# [19] = dose: 50.0 mg/kg/injection, schedule: Q01DX005 (ip), vehicle: Klucel (hydroxypropylcellulose) (HPC)
# [20] = dose: 100.0 mg/kg/injection, schedule: Q01DX005 (ip), vehicle: Klucel (hydroxypropylcellulose) (HPC)
# [21] = dose: 200.0 mg/kg/injection, schedule: Q01DX005 (ip), vehicle: Klucel (hydroxypropylcellulose) (HPC)
smiles,measurement,setting,value
FC(F)(F)C1(C(F)(F)F)N=CC=CN1,T/C,"dose: 50.0 mg/kg/injection, schedule: Q01DX009 (ip), vehicle: distilled water + alcohol",101 % of control
same,T/C,"dose: 100.0 mg/kg/injection, schedule: Q01DX009 (ip), vehicle: distilled water + alcohol",95 % of control
CCc1cccc2c3c([nH]c12)C(CC)(CC(=O)O)OCC3 (configuration not stated),T/C,"dose: 50.0 mg/kg/injection, schedule: Q01DX009 (ip), vehicle: Klucel (hydroxypropylcellulose) (HPC)",102 % of control
same,T/C,"dose: 100.0 mg/kg/injection, schedule: Q01DX009 (ip), vehicle: Klucel (hydroxypropylcellulose) (HPC)",110 % of control
same,T/C,"dose: 200.0 mg/kg/injection, schedule: Q01DX009 (ip), vehicle: Klucel (hydroxypropylcellulose) (HPC)",107 % of control
O=C1CSC(=O)N1c1ccc(F)cc1,T/C,"dose: 6.25 mg/kg/injection, schedule: Q01DX009 (ip), vehicle: saline",98 % of control
same,T/C,"dose: 12.5 mg/kg/injection, schedule: Q01DX009 (ip), vehicle: saline",113 % of control
same,T/C,[1],114 % of control
same,T/C,[2],106 % of control
same,T/C,[3],104 % of control
same,T/C,[4],87 % of control
O=C1CCSC(=S)N1c1ccccc1C(F)(F)F,T/C,[5],90 % of control
same,T/C,[6],92 % of control
same,T/C,[7],99 % of control
Nc1nc(-c2cc(-c3cccs3)nc(N)n2)cc(-c2cccs2)n1,T/C,[8],97 % of control
same,T/C,[9],100 % of control
O=[N+]([O-])c1ccc2c(ccn2C2OCC(O)C(O)C2O)c1 (configuration not stated),T/C,[2],94 % of control
same,T/C,[3],108 % of control
same,T/C,[4],106 % of control
CC(C)(CCC(C)(C)NC(=O)C12CC3CC(CC(C3)C1)C2)NC(=O)C12CC3CC(CC(C3)C1)C2,T/C,[10],90 % of control
same,T/C,[11],97 % of control
same,T/C,[12],97 % of control
CNC(=O)Nc1nncs1,T/C,[13],106 % of control
same,T/C,[14],104 % of control
same,T/C,[15],106 % of control
OCC1=CC(O)C2C=COC(C3OC(CO)C(O)C(O)C3O)C12 (configuration not stated),T/C,[8],103 % of control
same,T/C,[9],102 % of control
same,T/C,[16],100 % of control
Cc1ccc(S(=O)(=O)N/N=C/C(C)(c2ccccc2)c2ccccc2)cc1,T/C,[1],92 % of control
same,T/C,"dose: 50.0 mg/kg/injection, schedule: Q01DX009 (ip), vehicle: saline",99 % of control and 90 % of control
same,T/C,"dose: 100.0 mg/kg/injection, schedule: Q01DX009 (ip), vehicle: saline",99 % of control and 94 % of control
same,T/C,"dose: 200.0 mg/kg/injection, schedule: Q01DX009 (ip), vehicle: saline",97 % of control
CCN(CC)CC.[CH-]1CCCCC1.[CH-]1CCCCC1.[CH3-].[Cl-].[I-].[Sn+4],T/C,"dose: 6.0 mg/kg/injection, schedule: Q01DX005 (ip), vehicle: saline with Tween-80",101 % of control
same,T/C,"dose: 12.0 mg/kg/injection, schedule: Q01DX005 (ip), vehicle: saline with Tween-80",102 % of control
O=C1CC2(O)CSc3nc(=O)cc(n32)N1 (configuration not stated),T/C,[17],107 % of control
same,T/C,[18],106 % of control
same,T/C,"dose: 200.0 mg/kg/injection, schedule: Q01DX005 (ip), vehicle: saline",94 % of control
CC(=O)C(C#N)c1ccccn1 (configuration not stated),T/C,[2],106 % of control
same,T/C,[3],105 % of control
same,T/C,[4],100 % of control
CC1(C)OC[C@@H](N)[C@@H](O)CO1,T/C,[8],104 % of control
same,T/C,[9],104 % of control
same,T/C,[16],118 % of control
CCOC(=O)c1c(C)cc2c(CO)n[nH]c(=O)c2c1C,T/C,[2],102 % of control
same,T/C,[3],100 % of control
same,T/C,[4],99 % of control
COc1cccc2c1C(=O)c1c(O)c3c(c(O)c1C2=O)CC(O)(/C(C)=N/NC(=O)CC(=O)N/N=C(\C)C1(O)Cc2c(O)c4c(c(O)c2C(OC2CC(N)C(O)C(C)O2)C1)C(=O)c1c(OC)cccc1C4=O)CC3OC1CC(N)C(O)C(C)O1 (configuration not stated),T/C,"dose: 3.13 mg/kg/injection, schedule: Q01DX009 (ip), vehicle: water",153 % of control
same,T/C,"dose: 3.13 mg/kg/injection, schedule: Q04DX003 (ip), vehicle: water",101 % of control
same,T/C,"dose: 6.25 mg/kg/injection, schedule: Q01DX009 (ip), vehicle: water",169 % of control
same,T/C,"dose: 6.25 mg/kg/injection, schedule: Q04DX003 (ip), vehicle: water",110 % of control
same,T/C,"dose: 12.5 mg/kg/injection, schedule: Q04DX003 (ip), vehicle: water",112 % of control
CN=c1ccc2cc3ccc(NC)cc3oc-2c1,T/C,[17],92 % of control
same,T/C,[18],89 % of control
COc1ccc(/C=N/NC(=O)c2ccncc2)cc1F,T/C,"dose: 15.0 mg/kg/injection, schedule: Q01DX005 (ip), vehicle: saline with Tween-80",100 % of control
same,T/C,"dose: 30.0 mg/kg/injection, schedule: Q01DX005 (ip), vehicle: saline with Tween-80",99 % of control
same,T/C,[13],101 % of control and 88 % of control
same,T/C,[14],88 % of control
same,T/C,[15],95 % of control
COc1ccc(SS(=O)c2ccccc2)cc1 (configuration not stated),T/C,"dose: 100.0 mg/kg/injection, schedule: Q04DX002 (ip), vehicle: saline with Tween-80",105 % of control
same,T/C,"dose: 200.0 mg/kg/injection, schedule: Q04DX002 (ip), vehicle: saline with Tween-80",111 % of control
same,T/C,"dose: 400.0 mg/kg/injection, schedule: Q04DX002 (ip), vehicle: saline with Tween-80",108 % of control
Nc1ncnc2c1ncn2C1OC(COC2C(CO)OC(OC(C(=O)O)C(O)C(OP(=O)(O)O)C(O)C(=O)O)C(O)C2O)C(O)C1O (configuration not stated),T/C,"dose: 0.25 mg/kg/injection, schedule: Q01DX009 (ip), vehicle: saline",96 % of control
same,T/C,"dose: 0.5 mg/kg/injection, schedule: Q01DX009 (ip), vehicle: saline",105 % of control
same,T/C,"dose: 1.0 mg/kg/injection, schedule: Q01DX009 (ip), vehicle: saline",96 % of control
CCOC(=O)CCC(=O)Oc1ccc2c(c1OC(=O)CCC(=O)OCC)C(=O)c1ccccc1C2=O,T/C,"dose: 60.0 mg/kg/injection, schedule: Q01DX005 (ip), vehicle: Klucel (hydroxypropylcellulose) (HPC)",97 % of control
same,T/C,"dose: 120.0 mg/kg/injection, schedule: Q01DX005 (ip), vehicle: Klucel (hydroxypropylcellulose) (HPC)",97 % of control
same,T/C,"dose: 240.0 mg/kg/injection, schedule: Q01DX005 (ip), vehicle: Klucel (hydroxypropylcellulose) (HPC)",95 % of control
CC(C)(C)OC(=O)NC(Cc1ccc(OCc2c(Cl)cccc2Cl)cc1)C(=O)O (configuration not stated),T/C,[10],104 % of control
same,T/C,[11],100 % of control
same,T/C,[12],100 % of control
CC(=O)OC1CSC(OC(C)=O)C(OC(C)=O)C1[N+](=O)[O-] (configuration not stated),T/C,"dose: 100.0 mg/kg/injection, schedule: Q04DX002 (ip), vehicle: saline",99 % of control
same,T/C,"dose: 200.0 mg/kg/injection, schedule: Q04DX002 (ip), vehicle: saline",115 % of control
C#CCCCC#C,T/C,[19],98 % of control
same,T/C,[20],98 % of control
same,T/C,[21],104 % of control
CSC1=Nc2ccccc2SC(c2ccccc2)C1c1ccccc1 (configuration not stated),T/C,[19],99 % of control
same,T/C,[20],95 % of control
same,T/C,[21],96 % of control
CCn1c2ccccc2n2c(=O)cc(-c3ccccc3)c(C#N)c12,T/C,[13],98 % of control
same,T/C,[14],106 % of control
same,T/C,[15],97 % of control
O=C(O)C1=Cc2ccccc2OC1,T/C,"dose: 100.0 mg/kg/injection, schedule: Q04DX003 (ip), vehicle: Klucel (hydroxypropylcellulose) (HPC)",101 % of control
same,T/C,"dose: 200.0 mg/kg/injection, schedule: Q04DX003 (ip), vehicle: Klucel (hydroxypropylcellulose) (HPC)",107 % of control
same,T/C,"dose: 400.0 mg/kg/injection, schedule: Q04DX003 (ip), vehicle: Klucel (hydroxypropylcellulose) (HPC)",105 % of control
C=C1C=CC1=O,T/C,"dose: 0.63 mg/kg/injection, schedule: Q01DX009 (ip), vehicle: olive oil, sesame oil, peanut oil",100 % of control
same,T/C,"dose: 1.25 mg/kg/injection, schedule: Q01DX009 (ip), vehicle: olive oil, sesame oil, peanut oil",100 % of control and 91 % of control
same,T/C,"dose: 2.5 mg/kg/injection, schedule: Q01DX009 (ip), vehicle: olive oil, sesame oil, peanut oil",100 % of control and 93 % of control
same,T/C,"dose: 5.0 mg/kg/injection, schedule: Q01DX009 (ip), vehicle: olive oil, sesame oil, peanut oil",100 % of control and 104 % of control
same,T/C,"dose: 10.0 mg/kg/injection, schedule: Q01DX009 (ip), vehicle: olive oil, sesame oil, peanut oil",99 % of control and 103 % of control
Cc1ccc(N2C(=O)CCSC2=S)cc1Br,T/C,[5],103 % of control
same,T/C,[6],107 % of control
same,T/C,[7],107 % of control

# Source: PubChem BioAssay AID330 (DTP/NCI, 2004)
